{"source": "paper PMC6277198", "about": "“Molecular basis for activation of lecithin:cholesterol acyltransferase by a compound that increases HDL cholesterol” (eLife, 2018)", "origin": "cited, not measured here", "key": {"[1]": {"design": "method as in Shamburek et al., 2016b", "settings": "ref Shamburek et al., 2016b; cited from earlier work"}, "mice and hamsters": {"test_system": "mice and hamsters", "design": "method as in Chen et al., 2012; Freeman et al., 2017; Kayser et al., 2013", "settings": "ref Chen et al., 2012, Freeman et al., 2017, Kayser et al., 2013; cited from earlier work"}, "LCAT": {"test_system": "LCAT", "design": "method as in Kobayashi et al., 2015a; Kobayashi et al., 2015b", "settings": "removal of the C4 hydroxyl group, ref Kobayashi et al., 2015a, 2015b; cited from earlier work"}}, "data": [{"compound": "rhLCAT: Recombinant human LCAT, tested in phase I and as enzyme replacement therapy", "values": [{"measurement": "safety in a phase I study", "setting": "[1]", "result": "safe"}]}, {"compound": "CCSc1nnc(Sc2nccnc2C#N)s1", "note": "[Compound A, 3-(5-(ethylthio)−1,3,4-thiadiazol-2-ylthio)pyrazine-2-carbonitrile]", "values": [{"measurement": "plasma CE and HDL-C levels", "setting": "mice and hamsters", "result": "increases"}]}, {"compound": "O=C1CC(C(F)(F)F)c2c(C3CCN(c4cnc(C(F)(F)F)cn4)CC3)n[nH]c2N1", "note": "(stereo not drawn) [compound 4, 4-(trifluoromethyl)−3-(1-(5-(trifluoromethyl)pyrazin-2-yl)piperidin-4-yl)−1,4,5,7-tetrahydro-6H-pyrazolo[3,4-b]pyridin-6-one]", "values": [{"measurement": "drop in potency compared with 2", "setting": "LCAT", "result": "~ 6 fold"}]}]}
